Laboratory results taken from PubChem BioAssay (NCI).
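1) Cells in 96-well plates. 2) Compound, 48 h, 5 concentrations. 3) Linear interpolation between surrounding doses. 4) Unreached endpoint = highest concentration. TGI marks complete inhibition of growth.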

Tests used:
Assay in all cases: inhibition of tumour cell growth, NCI panel, 48 h
CAKI-1 renal = test system: CAKI-1 renal
K-562 leukemia = test system: K-562 leukemia
LOX IMVI melanoma = test system: LOX IMVI melanoma
SF-539 CNS = test system: SF-539 CNS
SNB-19 CNS = test system: SNB-19 CNS
ACHN renal = test system: ACHN renal
HL-60(TB) leukemia = test system: HL-60(TB) leukemia
U251 CNS = test system: U251 CNS
NCI-H226 lung = test system: NCI-H226 lung
SK-MEL-5 melanoma = test system: SK-MEL-5 melanoma
MDA-MB-435 = test system: MDA-MB-435
T-47D breast = test system: T-47D breast
NCI/ADR-RES ovarian = test system: NCI/ADR-RES ovarian

| SMILES | TGI (CAKI-1 renal) | TGI (K-562 leukemia) | TGI (LOX IMVI melanoma) | TGI (SF-539 CNS) | TGI (SNB-19 CNS) | TGI (ACHN renal) | TGI (HL-60(TB) leukemia) | TGI (U251 CNS) | TGI (NCI-H226 lung) | TGI (SK-MEL-5 melanoma) | TGI (MDA-MB-435) | TGI (T-47D breast) | TGI (NCI/ADR-RES ovarian) |
| --- | --- | --- | --- | --- | --- | --- | --- | --- | --- | --- | --- | --- | --- |
| CCCCn1c(-c2ccccc2)cs/c1=N\N=C1C=C(C(C)(C)C)C(=O)C(C(C)(C)C)=C1 | > 100 µM | > 100 µM | > 100 µM | > 100 µM | > 100 µM | > 100 µM | > 100 µM | > 100 µM | > 100 µM |  |  |  |  |
| C/C(=N\Nc1ccccc1)c1sc(-c2nc(C)c(/C(C)=N/Nc3ccccc3)s2)nc1C | > 89.4 µM | 69.9 µM | > 100 µM | > 37.7 µM | > 100 µM | > 32 µM | > 100 µM | > 100 µM | > 95.7 µM | > 47.6 µM |  |  |  |
| N=c1c2sc3nc4ccccc4n3c2ncn1Cc1ccccc1 | > 100 µM |  | > 100 µM | > 100 µM | > 100 µM | > 100 µM |  | > 100 µM | > 100 µM | > 100 µM | > 100 µM | > 100 µM | > 100 µM |
| COc1ccc(C=Nc2ccc(-c3nc4ccccc4s3)cc2)cc1OC | > 100 µM | > 100 µM | 45.5 µM | > 100 µM | > 100 µM | 70.5 µM |  | > 100 µM | 85.4 µM | 30.8 µM | > 100 µM | 81.2 µM | 89.8 µM |
| CC1CC(=O)Nc2ccc(Cl)cc2N1C(=O)CN1CCC(CCCCN(C)C)CC1 (stereo not drawn) | > 100 µM | > 100 µM | > 100 µM |  | > 100 µM | > 100 µM | > 100 µM | > 100 µM | > 100 µM | > 100 µM |  |  |  |
| Nc1cn(C2OC(CC(c3ccccc3)(c3ccccc3)c3ccccc3)C(O)C2O)c(=O)[nH]c1=O (stereo not drawn) | 57.1 µM | 54.4 µM | 35.2 µM |  | > 100 µM | > 100 µM | 36.9 µM | 32.1 µM | > 100 µM | 37.4 µM |  |  |  |
| CCN(CC)CC1CCCCN1CC(=O)N1c2cc(Cl)ccc2NC(=O)CC1C (stereo not drawn) | > 100 µM | > 100 µM | > 100 µM | > 100 µM | > 100 µM | > 100 µM | > 100 µM | > 100 µM | > 100 µM | > 100 µM |  |  |  |
| C/C(=C1/N=C(c2cc([N+](=O)[O-])ccc2Cl)N(c2ccc(Br)cc2)C1=O)c1ccc(N(CCC#N)CCC#N)cc1C | > 100 µM | 29.3 µM | 29.1 µM | > 100 µM | > 100 µM | > 100 µM | 36.3 µM |  | > 100 µM | > 100 µM |  |  |  |
| CCOC(=O)/C(Br)=C1\OC(=O)c2ccccc2-c2ccccc21 | > 100 µM | > 100 µM | > 100 µM | 73.1 µM |  | > 100 µM | 40.1 µM | > 100 µM | 86.1 µM | > 100 µM |  |  |  |
| Cc1ccc(S(=O)(=O)NC(=O)Nc2c(S(N)(=O)=O)cc(S(N)(=O)=O)c(Cl)c2Cl)cc1 | > 100 µM | > 100 µM | > 100 µM | > 100 µM | > 100 µM | > 100 µM | > 100 µM | > 100 µM | > 100 µM | > 100 µM | > 100 µM |  | > 100 µM |
| CCC(=O)OC1CCn2c1nc1c2C(=O)C(C)=C(NC(C)=O)C1=O (stereo not drawn) | 3.61 µM | 4.43 µM | 2.7 µM | 3.21 µM | 6.75 µM | 11.7 µM | 3.89 µM | 3.84 µM | 3.27 µM | 3.27 µM |  |  |  |
| Cc1ccsc1/C=N/NC1=NCCN1 | > 100 µM | > 100 µM | > 100 µM |  | > 100 µM | > 100 µM |  | > 100 µM | > 100 µM | > 100 µM | > 100 µM | > 100 µM | > 100 µM |
| N#C/C(=C\c1ccc(O)c(O)c1)c1c(C#N)c(N)nn1-c1ccccc1 | 9.05 µM | 55.9 µM | 44 µM | 18.9 µM | 42.4 µM | 26.9 µM | 32.7 µM | 20.6 µM |  | 34.4 µM |  |  |  |
| CC(=O)c1ccc(N2C(=O)C3c4[nH]c5ccccc5c4C4CCC(C(C)(C)C)CC4C3C2=O)cc1 (stereo not drawn) |  | > 100 µM |  | 46.1 µM | > 100 µM | 87.9 µM | 76.9 µM | 39.8 µM | 47.6 µM | 58.8 µM |  |  |  |
| COC1(OC)CC2C(=O)N(Cc3ccccc3)C1C(S(=O)(=O)c1ccccc1)C2C(C)S(=O)(=O)c1ccccc1 (stereo not drawn) | > 100 µM | > 100 µM | > 100 µM | > 100 µM | > 100 µM | > 100 µM | > 100 µM | > 100 µM |  | > 100 µM |  |  |  |
| COc1c(C)c(C/C=C(\C)CC/C=C(\C)CC/C=C(\C)CCC=C(C)C)c(OC)c(OC)c1OC | > 100 µM | > 100 µM | > 100 µM | > 100 µM | > 100 µM | > 100 µM |  | > 100 µM |  | > 100 µM | > 100 µM |  | > 100 µM |
| COC(=O)C(C(=O)C(=O)Nc1ccc(C)cc1)c1nc2ccc([N+](=O)[O-])cc2[nH]c1=O (stereo not drawn) | > 100 µM | > 100 µM | > 100 µM | > 100 µM | > 100 µM | > 100 µM | > 100 µM | > 100 µM | > 100 µM | > 100 µM |  |  |  |
| c1ccc2c(c1)nnn2CNc1ccc(N2CCCCC2)cc1 |  | > 100 µM | > 100 µM | > 100 µM | > 100 µM | > 100 µM | > 100 µM | > 100 µM | > 100 µM |  |  |  |  |
| O=C1c2ccccc2N=C(c2cc3c(cc2Cl)Sc2nccn2S3(=O)=O)OS(=O)(=O)N1c1ccccc1 | > 100 µM | 74.5 µM | 32 µM | > 100 µM | > 100 µM | > 100 µM | 60.7 µM | > 100 µM | > 100 µM |  | 51.4 µM | > 100 µM |  |
| O=C(Nc1cccc(C(F)(F)F)c1)C(=O)C(C(=O)c1ccc(Cl)c(Cl)c1)C1OC(=O)c2ccccc21 (stereo not drawn) | > 100 µM | > 100 µM | > 100 µM |  | > 100 µM | > 100 µM | > 100 µM | > 100 µM | 62.5 µM |  |  |  |  |
| CCOC(=O)Cc1c(C)c2ccc(OC(C)=O)c(OC(C)=O)c2oc1=O |  | 71.9 µM | 73.9 µM |  | > 100 µM | > 100 µM |  | > 100 µM | 94.3 µM | > 100 µM | > 100 µM |  | 58.4 µM |
